Assay results as given in US10125148B2, “Pyrazolopyrimidine macrocycles as inhibitors of human immunodeficiency virus replication” (priority 2014, dated 2018).
Like-named read-outs stand apart in the source and are kept apart here.

How the values were obtained:
[1] = rcm bond
[2] = from C=CCOC1(C)CCN(c2c([C@H](OC(C)(C)C)C(=O)OC)c(C)nc3cc(-c4cccc(-c5cc(CC)ccc5O[C@@H](C)CC=C)c4)nn23)CC1; rcm bond; 20-membered ring; Hoveyda-Grubbs II (name truncated)/CuI; DCE; 1.09 mM; 3.0 h

Compound: CCOC(=O)[C@@H](OC(C)(C)C)c1c(C)nc2cc3nn2c1N1CCC(C)(CC1)OC/C=C/[C@H](C)Oc1ccc(C)c(F)c1-c1cccc-3c1
- ring closure, isolated yield ([1]; from C=CCOC1(C)CCN(c2c([C@H](OC(C)(C)C)C(=O)OCC)c(C)nc3cc(-c4cccc(-c5c(O[C@@H](C)C=C)ccc(C)c5F)c4)nn23)CC1, 19-membered ring, Grubbs II (0.1 eq)/CuI, DCE, 1.33 mM, 2.0 h): 94%

Compound: CCc1ccc2c(c1)-c1cccc(c1)-c1cc3nc(C)c([C@H](OC(C)(C)C)C(=O)OC)c(n3n1)N1CCC(C)(CC1)OCC=CC[C@H](C)O2
- ring closure, crude yield [2]: 92%

Compound: CCOC(=O)[C@@H](OC(C)(C)C)c1c(C)nc2cc3nn2c1N1CCC(C)(CC1)OC/C=C/[C@H](C)Oc1ccc(F)cc1-c1cccc-3c1
- ring closure, isolated yield ([1]; from C=CCOC1(C)CCN(c2c([C@H](OC(C)(C)C)C(=O)OCC)c(C)nc3cc(-c4cccc(-c5cc(F)ccc5O[C@@H](C)C=C)c4)nn23)CC1, 19-membered ring, Grubbs II (0.1 eq)/CuI, DCE, 1.36 mM, 2.0 h): 67.3%

Compound: CCOC(=O)[C@@H](OC(C)(C)C)c1c(C)nc2cc3nn2c1N1CCC(C)(CC1)OCC=CC[C@H](C)Oc1ccc(C(=O)OC)cc1-c1cccc-3c1
- ring closure, isolated yield ([1]; from C=CCOC1(C)CCN(c2c([C@H](OC(C)(C)C)C(=O)OCC)c(C)nc3cc(-c4cccc(-c5cc(C(=O)OC)ccc5O[C@@H](C)CC=C)c4)nn23)CC1, 20-membered ring, Hoveyda-Grubbs II (0.1 eq)/CuI, DCE, 1.52 mM, 80.0 °C, 3.0 h): 83%

Compound: CCOC(=O)[C@@H](OC(C)(C)C)c1c(C)nc2cc3nn2c1N1CCC(C)(CC1)OC/C=C/[C@H](C)Oc1cc(C)ccc1-c1cccc-3c1
- ring closure, isolated yield ([1]; from C=CCOC1(C)CCN(c2c([C@H](OC(C)(C)C)C(=O)OCC)c(C)nc3cc(-c4cccc(-c5ccc(C)cc5O[C@@H](C)C=C)c4)nn23)CC1, 19-membered ring, Grubbs II (0.1 eq)/CuI, DCE, 1.32 mM, 2.0 h): 69.5%

Compound: COC(=O)[C@@H](OC(C)(C)C)c1c(C)nc2cc3nn2c1N1CCC(C)(CC1)OCC=CC[C@H](C)Oc1cc(F)cc(F)c1-c1cccc-3c1
- ring closure, isolated yield ([1]; from C=CCOC1(C)CCN(c2c([C@H](OC(C)(C)C)C(=O)OC)c(C)nc3cc(-c4cccc(-c5c(F)cc(F)cc5O[C@@H](C)CC=C)c4)nn23)CC1, 20-membered ring, Hoveyda-Grubbs II (2 x 0.05 eq), toluene, 1.26 mM, 80.0 °C, 3.0 h): 48%

Compound: COC(=O)[C@@H](OC(C)(C)C)c1c(C)nc2cc3nn2c1N1CCC(C)(CC1)OC/C=C/C[C@H](C)Oc1cc(C)cc(F)c1-c1cccc-3c1
- ring closure, isolated yield ([1]; from C=CCOC1(C)CCN(c2c([C@H](OC(C)(C)C)C(=O)OC)c(C)nc3cc(-c4cccc(-c5c(F)cc(C)cc5O[C@@H](C)CC=C)c4)nn23)CC1, 20-membered ring, Ru-SIMes catalyst (name truncated), 3.0 h): 78%

Compound: CCOC(=O)[C@@H](OC(C)(C)C)c1c(C)nc2cc3nn2c1N1CCC(C)(CC1)OC/C=C/C(C)Oc1cc(F)ccc1-c1cccc-3c1 (stereo partly drawn)
- ring closure, isolated yield ([1]; from C=CCOC1(C)CCN(c2c([C@H](OC(C)(C)C)C(=O)OCC)c(C)nc3cc(-c4cccc(-c5ccc(F)cc5O[C@@H](C)C=C)c4)nn23)CC1, 19-membered ring, Grubbs II (0.1 eq)/CuI, DCE, 1.27 mM, 2.0 h): 96%

Compound: CCOC(=O)[C@@H](OC(C)(C)C)c1c(C)nc2cc3nn2c1N1CCC(C)(CC1)OC/C=C/[C@H](C)Oc1cc(C)cc(F)c1-c1cccc-3c1
- ring closure, isolated yield ([1]; from C=CCOC1(C)CCN(c2c([C@H](OC(C)(C)C)C(=O)OCC)c(C)nc3cc(-c4cccc(-c5c(F)cc(C)cc5O[C@@H](C)C=C)c4)nn23)CC1, 19-membered ring, Grubbs II (0.1 eq)/CuI, DCE, 1.09 mM, 2.0 h): 72%
